The results in this text go back to ChEMBL document CHEMBL3046157, “Synthesis of new N-arylamino(2-furyl)methylphosphonic acid diesters, and in vitro evaluation of their cytotoxicity against esophageal cancer cells” (Med Chem Res, 2013).

Experiment [1] in a line: Cytotoxicity against Homo sapiens (human) HET-1A cells assessed as inhibition of cell survival after 24 hr by MTT assay. It is filed as cell-based. For orientation: Tetrazolium assays rely on reduction of a dye to a coloured formazan, in cell work by metabolically active cells.
Experiment [2] is described as follows: Cytotoxicity against Homo sapiens (human) KYSE-30 cells assessed as inhibition of cell survival after 24 hr by MTT assay. The conditions noted are these: KYSE-30, 24 h. It is filed as functional, cell-based.
Experiment [3] can be described thus: Cytotoxicity against Homo sapiens (human) KYSE-150 cells assessed as inhibition of cell survival after 24 hr by MTT assay. It is filed as functional, cell-based. The conditions noted are these: KYSE-150, 24 h.
For the next experiment, the system named is KYSE-270. The experiment can be described thus: Cytotoxicity against Homo sapiens (human) KYSE-270 cells assessed as inhibition of cell survival after 24 hr by MTT assay. The conditions noted are these: KYSE-270, 24 h. It is filed as functional, cell-based.

As to `COc1ccccc1NC(c1ccco1)P(=O)(OC)OC` (centres undefined), the IC50 – broadly, the point on the concentration scale where inhibition reaches its midpoint – in experiment [1] was above 400 µM; in experiment [2], 38 µM; in experiment [3], 51.3 µM; with KYSE-270, 77.4 µM.
As for `COc1ccc(NC(c2ccco2)P(=O)(OC)OC)cc1` (centres undefined), the IC50 was above 400 µM in experiment [1], 316 µM in experiment [2], 166 µM in experiment [3] and 224 µM with KYSE-270.
Taken in the same sequence, the figures for `COc1ccc(NC(c2ccco2)P(=O)(Oc2ccccc2)Oc2ccccc2)cc1` (centres undefined) were above 400 µM, above 400 µM, 209 µM and 205 µM.
Turning to `Cc1ccccc1NC(c1ccco1)P(=O)(Oc1ccccc1)Oc1ccccc1` (centres undefined), the IC50 in experiment [1] is above 400 µM; in experiment [2], 251 µM; in experiment [3], above 400 µM; in the experiment with KYSE-270 it was above 400 µM.
With `Cc1cccc(NC(c2ccco2)P(=O)(Oc2ccccc2)Oc2ccccc2)c1` (centres undefined), the IC50 was above 400 µM in experiment [1], 380 µM in experiment [2], above 400 µM in experiment [3] and above 400 µM in the experiment on KYSE-270.
Regarding `Cc1ccc(NC(c2ccco2)P(=O)(Oc2ccccc2)Oc2ccccc2)cc1` (centres undefined), the IC50 (in experiment [1]; in experiment [2]; in experiment [3]; in the experiment with KYSE-270) was above 400 µM in each case.
Turning to `COc1cccc(NC(c2ccco2)P(=O)(OCc2ccccc2)OCc2ccccc2)c1` (centres undefined), the IC50 in experiment [1] was above 400 µM; in experiment [2] it was 251 µM; in experiment [3] it was 200 µM; in the experiment on KYSE-270 it was 251 µM.
On to `Cc1cccc(/N=C/c2ccco2)c1` [N-FURFURYLIDENE-M-TOLUIDINE], for which the IC50 is above 400 µM in experiment [1], 158 µM in experiment [2], 50.1 µM in experiment [3] and 111 µM in the experiment with KYSE-270.
Taken in the same sequence, the figures for `COc1ccccc1/N=C/c1ccco1` [N-FURFURYLIDENE-O-ANISIDINE] were above 400 µM, above 400 µM, above 400 µM and above 400 µM.
Taken in the same sequence, the figures for `COc1ccc(/N=C/c2ccco2)cc1` [N-FURFURYLIDENE-P-ANISIDINE] were above 400 µM, above 400 µM, above 400 µM and above 400 µM.
For `Cc1ccc(/N=C\c2ccco2)cc1` [N-FURFURYLIDENE-P-TOLUIDINE] the same measures were above 400 µM, above 400 µM, 380 µM and 398 µM.
